Experiments:
[1] = system: left ventricle of male Sprague/Dawley (SD) rats; test: Cardiac gene expression (real-time RT-PCR) in rats treated with fluprostenol and/or IFN-γ; format: in vivo, rat; conditions: SKA, SRCA, COL I, ANF; FIG. 6
Description: FIGS. 6A–6D Bargraphs showing the effect of fluprostenol (FLUP) and IFN-γ on: A Skeletal actin (SKA); B Sarcoplasmic reticulum calcium ATPase (SRCA); C Collagen I (COL I); D Atrial natriuretic factor (ANF) expression. Expression levels are normalized to glyceraldehyde-3-phosphate dehydrogenase (GAPDH) message. VEH is vehicle. There were 7 animals per group and the data are presented as the mean±SEM. P<0.05 vs VEH group.
(§1) RNA preparation Total RNA was isolated using RNeasy Maxi Columns (Qïägen) according to the manufacturer's instructions.
RT-PCR Real-time RT-PCR (TaqMan) technology was used to compare the gene expression between the various treatment groups. An oligonucleotide probe containing a fluorescent reporter dye, […], at the 3′-end was designed to hybridize to the amplicon defined by two PCR primers. A 3′-blocking phosphate prevents extension of the probe. The reporter dye is released from the probe by the 5′ exonuclease activity of Taq polymerase during the extension phase of PCR reaction. […] The threshold cycle number (Ct), defined as the point where the reporter fluorescence reaches a value greater than 10 times the standard deviation of the baseline, is […] to the amount of amplicon produced from the sample. Since the fluorescence is detected during the exponential phase of the amplification, none of the reaction components are limiting. In each experiment, a control is analyzed that lacks the RNA template to monitor for contamination, and another control is included where the RT step is omitted to eliminate amplification of possible contaminating DNA as the source of the signal. Reactions are optimized to give the greatest fluorescence signal and smallest Ct by titration of magnesium and primer concentrations, and the product is run on an agarose gel to verify the presence of a single band at the predicted molecular weight. […]
Quantitation of the TaqMan results was performed as described by Heid et al., Genome Res. 6:986–994 (1996), with modifications. […]

[2] = system: left ventricle of rats with pressure overload; test: Cardiac gene expression (real-time RT-PCR) in rats with pressure overload; format: in vivo, rat
Experimental: Experimental protocol in rats with pressure overload The rats with aortic banding randomly received subcutaneous injection of IFN-γ at 0.08 mg/k twice a day for one day before surgery and for 14 days after surgery. Sham animals were not treated. Thirteen days after treatment, a catheter was implanted into the right carotid artery under anesthesia as indicated above. One day after implantation, arterial pressure and HR were measured in conscious rats. The heart and other organs including the liver, kidney, and spleen were removed, weighed, and fixed in 10% buffered formalin for pathological studies. The left ventricle was quickly dissected and frozen with liquid nitrogen in some animals and stored at −80° C. for assessment of gene expression.
as §1
RT-PCR Real-time RT-PCR (TaqMan) technology was used to compare the gene expression between the various treatment groups. An oligonucleotide probe containing a fluorescent reporter dye, […], at the 3′-end was designed to hybridize to the amplicon defined by two PCR primers. A 3′-blocking phosphate prevents extension of the probe. The reporter dye is released from the probe by the 5′ exonuclease activity of Taq polymerase during the extension phase of PCR reaction. […] The threshold cycle number (Ct), defined as the point where the reporter fluorescence reaches a value greater than 10 times the standard deviation of the baseline, is […] to the amount of amplicon produced from the sample. Since the fluorescence is detected during the exponential phase of the amplification, none of the reaction components are limiting. In each experiment, a control is analyzed that lacks the RNA template to monitor for contamination, and another control is included where the RT step is omitted to eliminate amplification of possible contaminating DNA as the source of the signal. Reactions are optimized to give the greatest fluorescence signal and smallest Ct by titration of magnesium and primer concentrations, and the product is run on an agarose gel to verify the presence of a single band at the predicted molecular weight. In addition, the sequence of the amplicon is screened against Genbank to eliminate the possibility of overlap with closely related genes.
For each sample the mRNA for each target gene is determined using a standard curve as described below and then normalized to the amount of glyceraldehyde-3-phosphate-dehydrogenase (GAPDH) in the sample (see below for specifics of this calculation). The relative abundance of each target gene to GAPDH can then be compared among treatment groups.
RT-PCR was performed on 1 ng of total RNA per reaction using the TaqMan Model 7700 Sequence Detector (ABI-Perkin Elmer) (Gibson et al., Genome Res. 6, 995–1001 [1996]). Amplification reaction conditions (for 50 μl) were 1×TaqMan Buffer A, 200 μM dATP, dCTP, dGTP, and 400 μM dUTP, 10% glycerol, 6.5 mM MgCl2, 50 U MuLV reverse transcriptase, 20 U RNase Inhibitor, 1.25 U AmpliTaq Gold, 100 nM forward and reverse primers, and 100 nM fluorogenic probe. RT-PCR reagents and glycerol were purchased from Perkin Elmer and Sigma, respectively. Reactions were performed in MicoAmp Optical Tubes and Caps (ABI-Perkin Elmer). TaqMan primers and probes were designed according to guidelines determined by Perkin Elmer and synthesized at Genentech, Inc., except for those for rodent GAPDH which were a generous gift from Perkin Elmer. Reverse transcription was performed at 48° C. for 30 minutes followed by heat activation of AmpliTaq Gold at 95° C. for 10 minutes. Thermal cycling was at 95° C. for 30 seconds and 60° for 1.5 minutes for 40 cycles.
Quantitation of the TaqMan results was performed as described by Heid et al., Genome Res. 6:986–994 (1996), with modifications. Briefly, standard curves (1:5 serial dilution) for each target gene of interest were run in duplicate. […]

[3] = pressure overload, ratio to glyceraldehyde-3-phosphate dehydrogenase, mean ± SEM, n = 6

## IFN-γ: recombinant mouse IFN-γ (Genentech, Inc., South San Francisco, Calif., or Genzyme, Cambridge, Mass.)
[1]
  Inhibition of alterations in cardiac gene expression associated with fluprostenol induced hypertrophy: inhibited all but the atrial natriuretic factor response
[2]; banded rats, Table 3
  Effects of aortic constriction on α-smooth muscle actin and collagen I gene expression: inhibited
[2]; [3]
  ANF, atrial natriuretic factor expression: 3.61 ± 1.32
  COLI, collagen I expression: 0.77 ± 0.10
  COLIII, collagen III expression: 0.72 ± 0.09
  FIB, fibronectin expression: 0.97 ± 012
  SKA, α-skeletal actin expression: 2.47 ± 0.51
  SMA, α-smooth muscle actin expression: 0.77 ± 0.06
  βMHC, β-myosin heavy chain expression: 1.71 ± 0.14
